Source: article PMC11876671, “Investigating blood–brain barrier penetration and neurotoxicity of natural products for central nervous system drug development” (Scientific Reports, 2025)
Where two headings read alike, the source gives them in different places.

Experiments:
[1] = system: GFP-labeled iPSC-derived human cortical glutamatergic neurons; test: cells; assay type: cell-based; details: Homo sapiens, Neuron
[2] = system: GFP-labeled iPSC-derived human cortical glutamatergic neurons; test: cells; details: Neuron, 48 h
[3] = in vitro; details: PAMPA, PAMPA-BBB Pe
[4] = Table S1, total neurite length, 48 hr, head prints no unit, µM per Table 1 and Fig. 5, read-out: TNL AC50 (48 hr)
[5] = Table S2: compounds exhibiting moderate to high PAMPA-BBB permeability
[6] = read-out: Viability AC50 (48hr)
[7] = Table S1, 60 min, room temperature, 0.05 mM
[8] = total neurite length, 48 h treatment, read-out: TNL AC50 (48 h)
[9] = Table 1, 60 min, room temperature, 0.05 mM
[10] = read-out: Viability AC50 (48 h)

Row | SMILES | AC50 [1, 4] | PAMPA-BBB Pe [5] | AC50 [2, 6] | Papp [3, 7] | also measured
1 | COc1cc(O)c2c(c1)C1OC1C[C@H](O)[C@H](O)C(=O)C=CC[C@H](C)OC2=O (stereo partly drawn) [NCGC00183677-03] | 35.9 µM | 69 10^-6 cm/sec | 28.2 µM | 69.3 ×10⁻⁶ cm/s | –
2 | COc1ccc(/C=C/C(=O)c2cc(O)ccc2O)cc1 [NCGC00096016-04] | 12.9 µM | 300 10^-6 cm/sec | 19.8 µM | 300 ×10⁻⁶ cm/s | –
3 | O=c1cc(-c2ccc(O)c(O)c2)oc2ccccc12 [3',4'-DIHYDROXYFLAVONE] | 15.7 µM | 94 10^-6 cm/sec | 19.8 µM | 93.9 ×10⁻⁶ cm/s | –
4 | O=c1c(O)c(-c2ccccc2)oc2ccccc12 [3-Hydroxyflavone] | – | – | – | 181 ×10⁻⁶ cm/s | AC50 [1, 8]: 2.97 µM; PAMPA-BBB Pe [9]: 181.17 10 × 10^− 6 cm/sec; AC50 [2, 10]: 1.83 µM
5 | O=C(/C=C/c1ccc(O)c(O)c1)OCCc1ccccc1 [Caffeic acid phenethyl ester] | 22.2 µM | – | 24.8 µM | – | PAMPA-BBB Pe [7]: >1000 10^-6 cm/sec
6 | C=CC[C@@H]1/C=C(\C)C[C@H](C)C[C@H](OC)[C@H]2O[C@@](O)(C(=O)C(=O)N3CCCC[C@H]3C(=O)O[C@H](/C(C)=C/[C@@H]3CC[C@@H](O)[C@H](OC)C3)[C@H](C)[C@@H](O)CC1=O)[C@H](C)C[C@@H]2OC [Tacrolimus, reference compound] | 2.65 µM | 154 10^-6 cm/sec | 4.19 µM | 154 ×10⁻⁶ cm/s | AC50 [1, 8]: 2.65 µM; PAMPA-BBB Pe [9]: 154.13 10 × 10^− 6 cm/sec; AC50 [2, 10]: 4.19 µM
7 | COc1ccc(/C=C\c2cc(OC)c(OC)c(OC)c2)cc1O [Combretastatin A4] | 0.0277 µM | 316 10^-6 cm/sec | 0.047 µM | 316 ×10⁻⁶ cm/s | AC50 [1, 8]: 0.028 µM; PAMPA-BBB Pe [9]: 315.59 10 × 10^− 6 cm/sec; AC50 [2, 10]: 0.047 µM
8 | CC(C)c1cc2c(c(O)c1O)[C@@]13CCCC(C)(C)[C@@H]1C[C@@H]2OC3=O [Carnosol] | 17.8 µM | 33 10^-6 cm/sec | 26.4 µM | 32.8 ×10⁻⁶ cm/s | –
9 | COc1ccc(-c2coc3c(O)c(O)c(OC)cc3c2=O)cc1 [NCGC00264029-02] | 30.1 µM | 40 10^-6 cm/sec | 25.6 µM | 40.1 ×10⁻⁶ cm/s | –
10 | Cc1c2ccncc2c(C)c2c1[nH]c1ccccc12 [Ellipticine] | – | >1000 10^-6 cm/sec | 19.6 µM | – | AC50 [1, 8]: 2.64 µM; PAMPA-BBB Pe [9]: > 1000 10 × 10^− 6 cm/sec; PAMPA-BBB Pe [7]: >1000 10^-6 cm/sec; AC50 [2, 10]: 19.6 µM
11 | CC1=C(O)C(=O)C=C2C1=CC=C1[C@@]2(C)CC[C@@]2(C)[C@@H]3C[C@](C)(C(=O)O)CC[C@]3(C)CC[C@]12C [Celastrol] | 4.92 µM | – | 5.47 µM | 143 ×10⁻⁶ cm/s | AC50 [1, 8]: 4.92 µM; PAMPA-BBB Pe [9]: 142.58 10 × 10^− 6 cm/sec; AC50 [2, 10]: 5.47 µM; Papp [3, 5]: 143 ×10⁻⁶ cm/s
12 | COC(=O)[C@H]1[C@H]2C[C@@H]3c4[nH]c5ccccc5c4CCN3C[C@H]2C[C@@H](OC(=O)c2cc(OC)c(OC)c(OC)c2)[C@@H]1OC [Deserpidine, reference compound] | 11.3 µM | 42 10^-6 cm/sec | 16.6 µM | 42.1 ×10⁻⁶ cm/s | –
13 | Cc1c(O)c(O)cc2c1CC=C1[C@@]2(C)CC[C@@]2(C)[C@H]3C[C@](C)(C(=O)O)CC[C@]3(C)CC[C@]12C [NCGC00264082-02] | 2.37 µM | 288 10^-6 cm/sec | 4.3 µM | 288 ×10⁻⁶ cm/s | –
14 | C=C(C)[C@@H]1CCC2=CC(=O)C[C@@H](C)[C@]2(C)C1 [Nootkatone] | 13.1 µM | 63 10^-6 cm/sec | 3.98 µM | 63.3 ×10⁻⁶ cm/s | –
15 | COc1cc(C)ccc1O [Creosol] | – | – | 10.5 µM | – | AC50 ([1]; 48 h, read-out: TNL AC50 (48 hr)): 15.3 µM; PAMPA-BBB Pe (PAMPA): 115 10^-6 cm/sec; Papp [3]: 115 ×10⁻⁶ cm/s
16 | Cc1cc2c(C(C)C)c(O)c(O)c(C=O)c2c(O)c1-c1c(C)cc2c(C(C)C)c(O)c(O)c(C=O)c2c1O [Gossypol] | 7.6 µM | 393 10^-6 cm/sec | 6.91 µM | 393 ×10⁻⁶ cm/s | –
17 | COc1ccc2c(c1OC)C(=O)O[C@@H]2[C@H]1c2cc3c(cc2CCN1C)OCO3 [Hydrastine] | 26.1 µM | 57 10^-6 cm/sec | 22.8 µM | 57.4 ×10⁻⁶ cm/s | –
18 | COC(=O)[C@H]1[C@H]2C[C@@H]3c4[nH]c5cc(OC)ccc5c4CCN3C[C@H]2C[C@@H](OC(=O)c2cc(OC)c(OC)c(OC)c2)[C@@H]1OC [Reserpine, reference compound] | 31.8 µM | – | 35.2 µM | – | PAMPA-BBB Pe (PAMPA): 90 10^-6 cm/sec; Papp [3]: 90.1 ×10⁻⁶ cm/s
19 | CN1Cc2c(ccc3c2OCO3)[C@@H]2[C@H]1c1cc3c(cc1C[C@@H]2O)OCO3 [Chelidonine] | 7.54 µM | 75 10^-6 cm/sec | 5.8 µM | 75 ×10⁻⁶ cm/s | –
20 | Cc1nccc2c1[nH]c1ccccc12 [Harmane] | 3.21 µM | – | – | – | AC50 [1, 8]: 3.21 µM; PAMPA-BBB Pe (PAMPA): 59.65 10 × 10^− 6 cm/sec; AC50 [2, 10]: 12.2 µM; Papp [3]: 59.6 ×10⁻⁶ cm/s
21 | COc1cc(C2c3cc4c(c(O)c3CC3COC(=O)C32)OCO4)cc(OC)c1O (stereo not drawn) [Alpha-Peltatin] | 0.003 µM | – | 0.002 µM | 14.2 ×10⁻⁶ cm/s | –
22 | C[C@H]1COC2=C1C(=O)C(=O)c1c2ccc2c1CCCC2(C)C [Cryptotanshinone] | 21.1 µM | – | 19.8 µM | 12 ×10⁻⁶ cm/s | –
23 | COc1ccc2c(c1OC)C(=O)O[C@@H]2[C@H]1c2c(cc3c(c2OC)OCO3)CCN1C [Noscapine, reference compound] | 1.06 µM | – | 11.6 µM | – | AC50 ([1]; rounded values, read-out: AC50 (neurite outgrowth inhibition)): 1.1 µM; AC50 [1, 8]: 1.06 µM; PAMPA-BBB Pe (PAMPA): 74.54 10 × 10^− 6 cm/sec; AC50 [2, 10]: 11.6 µM; Papp [3]: 74.5 ×10⁻⁶ cm/s
24 | COc1cc2c(OC(C)=O)c3c(c(-c4ccc5c(c4)OCO5)c2cc1OC)C(=O)OC3 [NCGC00161918-01] | 3.1 µM | 349 10^-6 cm/sec | 9.92 µM | 349 ×10⁻⁶ cm/s | –
25 | C=CC(C1=CC(=O)C(OC)=CC1=O)c1ccc(OC)cc1 (stereo not drawn) [NCGC00095719-04] | 1.26 µM | – | 1.33 µM | 143 ×10⁻⁶ cm/s | Papp [3, 5]: 143 ×10⁻⁶ cm/s
26 | CCC(=O)CCCCC[C@@H]1NC(=O)[C@H]2CCCCN2C(=O)[C@H]([C@@H](C)CC)NC(=O)[C@H](Cc2cn(OC)c3ccccc23)NC1=O [Apicidin] | 4.84 µM | 56 10^-6 cm/sec | 2.17 µM | 55.8 ×10⁻⁶ cm/s | AC50 [1, 8]: 4.84 µM; PAMPA-BBB Pe [9]: 55.75 10 × 10^− 6 cm/sec; AC50 [2, 10]: 2.17 µM
27 | C=C[C@@H](C1=CC(=O)C(OC)=C(OC)C1=O)c1ccccc1 [NCGC00160161-01] | 1.07 µM | – | 6.54 µM | 69.8 ×10⁻⁶ cm/s | Papp [3, 5]: 70 ×10⁻⁶ cm/s
28 | COc1ccc(C(=O)/C=C/c2ccccc2)cc1 [4'-METHOXYCHALCONE] | 23.6 µM | >1000 10^-6 cm/sec | 23.6 µM | – | PAMPA-BBB Pe [7]: >1000 10^-6 cm/sec
29 | COc1cc([C@@H]2c3cc4c(cc3C[C@H]3COC(=O)[C@@H]32)OCO4)cc(OC)c1O [(5R,5aR,8aR)-5-(4-hydroxy-3,5-dimethoxyphenyl)-5,8,8a,9-tetrahydrofuro[3',4':6,7]naphtho[2,3-d][1,3]dioxol-6(5aH)-one] | 0.585 µM | – | 0.656 µM | 11.2 ×10⁻⁶ cm/s | Papp [3, 5]: 11 ×10⁻⁶ cm/s
30 | CC[C@@]1(O)C[C@H](O[C@H]2C[C@H](N(C)C)[C@H](O)[C@H](C)O2)c2c(cc3c(c2O)C(=O)c2c(O)ccc(O)c2C3=O)[C@H]1C(=O)OC [NCGC00178933-02] | 0.475 µM | – | 0.81 µM | 31.9 ×10⁻⁶ cm/s | Papp [3, 5]: 32 ×10⁻⁶ cm/s
